Patent publication US11891348B2, “Cycloheptylamine derivatives as anti-diabetic agents” (UNITED ARAB EMIRATES UNIVERSITY, priority 2020, dated 2024)
“Also recorded” adds a separate entry of the source. Where a name gives a salt, the structure may show the parent alone.

Legend:
βTC6 cells = assay: Insulin secretion by βTC6 cells, high range insulin Sandwich ELISA kit; format: cell-based; conditions: for insulin secretion compared to the basal control: absence of glucose; for insulin secretion compared to basal insulin secretion: presence of 2.8 mM glucose, 10^−15, 10^−12, and 10^−9 M
Procedure: FIG. 2A is a bar graph showing the in vitro effects on insulin secretion of compound 2a at concentrations of 10^−15, 10^−12, and 10^−9 M, compared to control, in both the absence and presence of 2.8 mM glucose. Results are means of triplicates±SEM; * P<0.05, ** P<0.01, *** P<0.001, from relative basal control.
The secretion of insulin by βTC6 cells was measured using the high range insulin Sandwich ELISA kit. The 2.8 mM glucose gave a mild insulin response around 3000 pmol/l and was used in testing the effect of compounds 2a-d. […]

[1] = system: STZ-induced diabetic rats; assay: Fasting blood glucose (FBG) in Streptozotocin (STZ)-induced diabetic rats after oral administration; format: in vivo
Procedure: (§1) FIG. 1A is a bar graph showing in vivo anti-hyperglycemic effect on fasting blood glucose levels over time, ranging from 0 minute to 480 minutes, and at 1440 minutes, in STZ-induced diabetic rats, comparing a dose of 1.0 μM/kg compound 2a with control. Results are means±SEM; n=6 rats; * P<0.05, ** P<0.01, vs. STZ control.
as §1, with “1B” for “1A”, “2b” for “2a”
as §1, with “FIG. 1C” for “FIG. 1A”, “comparing an oral” for “comparing a”, “compound 2c” for “compound 2a”
as §1, with “FIG. 1D is a” for “FIG. 1A is a”, “from 0 minutes to 480” for “from 0 minute to 480”, “μM/kg compound 2d with control.” for “μM/kg compound 2a with control.”
These symptoms indicated the development of diabetes characterized by chronic and persistently elevated plasma glucose levels.
Compound 2a was orally administrated to the treated groups of diabetic rats at a dose of 1.0 μM/kg. Glucose levels in their blood were followed over 8.0 hours. […] Compounds 2b-d were orally administrated to the treated groups of diabetic rats at a dose of 1.0 μM/kg. Blood glucose levels were monitored at 0, 30 minutes, 60 minutes, 2 hours, 4 hours, 6 hours, 8 hours, and then again at 24 hours.

[2] = 10^−15, 10^−12, and 10^−9 M tested

Row | SMILES | insulin secretion compared to the basal control (βTC6 cells; [2]) | insulin secretion compared to basal insulin secretion (βTC6 cells) | melting point [°C] | further results
1 | Nc1ccc(S(=O)(=O)NC(=O)NC2CCCCCC2)cc1 [compound 9d, 4-Amino-N-(cycloheptylcarbamoyl)benzenesulfonamide] | not to a statistically significant degree | significant stimulation | 235 to 236 | –
2 | N=C(N)NC1CCCCCC1 [compound 10, 1-Cycloheptylguanidine hydrochloride] | not to a statistically significant degree | significant stimulation | – | –
3 | O=C(NC1CCCCCC1)C(=O)NC1CCCCCC1 [compound 8, N1,N2-dicycloheptyloxalamide] | – | – | 232 | –
4 | c1cc(-c2cc[n+](C3CCCCCC3)cc2)ccn1 (as salt: chloride) [compound 6, 1-cycloheptyl-[4,4′-bipyridin]-1-ium chloride] | – | – | 102 | –
5 | Cl.N=C(N)/N=C(\N)NC1CCCCCC1 [compound 11, (E)-Amino[(amino(cycloheptylamino)methylene)amino]methaniminium chloride] | not to a statistically significant degree | significant stimulation | 283 | –
6 | N=C(N)NC1CCCCCC1 (as salt: hydrochloride) [compound 10, 1-Cycloheptylguanidine hydrochloride] | – | – | 106 | –
7 | Cc1ccc(S(=O)(=O)NC(=O)NC2CCCCCC2)cc1 [compound 9f, N-(Cycloheptylcarbamoyl)-4-methylbenzenesulfonamide] | not to a statistically significant degree | significant stimulation | – | –
8 | O=C(Nc1cc(C(F)(F)F)cc(C(F)(F)F)c1)NC1CCCCCC1 [9a, 1-[3′,5′-Bis(trifluoromethyl)phenyl]-3-cycloheptylurea] | – | – | 169 to 170 | –
9 | NC1CCCCCC1 [compound 2a, Cycloheptanamine Hydrochloride] | significantly stimulated | – | – | insulin secretion compared to the basal control (βTC6 cells; concentrations of 10^−15 and 10^−12 M): significantly stimulated; insulin secretion compared to basal insulin secretion (βTC6 cells; Hydrochloride): stimulated insulin secretions significantly; stimulation of insulin production (βTC6 cells; summary statement, glucose condition not given): stimulation of insulin production; duration of significant reduction in blood glucose levels ([1]; 1.0 μM/kg): at least 8 hours; time to significant reduction in blood glucose levels ([1]; 1.0 μM/kg): ≤ 1 h; reduction in blood glucose levels compared to control diabetic rats ([1]; oral dose of 1.0 μM/kg, followed over 8.0 hours, Hydrochloride): significant reduction; also recorded: reductions in blood glucose levels
10 | Nc1nccc(NC(=O)NC2CCCCCC2)n1 [compound 9c, 1-(2′-Aminopyrimidin-4′-yl)-3-cycloheptylurea] | not to a statistically significant degree | significant stimulation | 139 to 141 | –
